Columns and labels:
MDA-MB-453 [1] = assay: drug sensitivity score (DSS), in combination with BLU9931 (DSS (weighted AUC score)); higher = more sensitive (stronger viability decrease); extreme values may be limits of the assay; conditions: BLU9931 100 nM; 72 h
Method in brief: (§1)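 Compounds from the FIMM Oncology set were predispensed in singlicate at five 10-fold dilutions (10,000-fold range) on 384-well plates. Each well then received 2000 MDA-MB-453 cells in medium with or without an FGFR4 inhibitor (100 nM final) and was kept at 37 °C, 5% CO2. Cellular ATP was read with CellTiterGlo 2.0 after 72 h and normalised per plate to percent viability from control wells. The drug sensitivity score is a weighted area under a four-parameter logistic fit.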

MDA-MB-453 [2] = assay: drug sensitivity score (DSS), single agent (DSS (weighted AUC score)); higher = more sensitive (stronger viability decrease); extreme values may be limits of the assay; conditions: BLU9931 0 nM; 72 h
Method in brief: as §1

| Compound | drug sensitivity score (MDA-MB-453 [1]) | drug sensitivity score (MDA-MB-453 [2]) |
| --- | --- | --- |
| Cc1cnc(NC(=O)Nc2cc(Br)c(C)cc2OC[C@@H]2CNCCO2)cn1 [Rabusertib] | 0.9 | 1.2 |
| COc1cc2c(cc1OC(C)C)[C@H](c1ccc(Cl)cc1)N(c1ccc(N(C)C[C@H]3CC[C@H](N4CCN(C)C(=O)C4)CC3)cc1)C(=O)C2 [NVP-CGM097] | 8.5 | 7.9 |
| C=CC(=O)Nc1cc(Nc2nccc(-c3cn(C)c4ccccc34)n2)c(OC)cc1N(C)CCN(C)C [Osimertinib] | 10.4 | 8 |
| O=C(CCCCCCC(=O)Nc1ccc([C@H]2O[C@@H](CSc3nc(-c4ccccc4)c(-c4ccccc4)o3)C[C@@H](c3ccc(CO)cc3)O2)cc1)NO [Tubacin] | 1.7 | 2 |
| Nc1cc(F)ccc1NC(=O)/C=C/c1cnn(C/C=C/c2ccccc2)c1 [RGFP966] | 2.9 | 2.6 |
| CN1CCN(c2nc(C3=C(c4c[nH]c5ccccc45)C(=O)NC3=O)c3ccccc3n2)CC1 [Sotrastaurin] | 1 | 2.5 |
| CS(=O)(=O)c1ccc(-c2cnc(N)c(C(=O)Nc3ccccc3)n2)cc1 [VE-821] | 4.7 | 2 |
| CCOc1ccccc1-n1c(C(C)N2CCN(C(=O)COc3ccc(Cl)cc3)CC2)nc2ccccc2c1=O (stereo unspecified) [Erastin] | 5.6 | 4.1 |
| CN(C(=O)c1ccc(F)cc1C(F)(F)F)C1CCN(c2nnc(-c3ccnn3C)c3ccccc23)CC1 [Taladegib] | 1.1 | 1.6 |
| CC1(C)NC(=O)N(c2ccc([N+](=O)[O-])c(C(F)(F)F)c2)C1=O [Nilutamide] | 0 | 0 |
| C=C(c1ccc(C(=O)O)cc1)c1cc2c(cc1C)C(C)(C)CCC2(C)C [Bexarotene] | 0 | 0 |
| O=C(Nc1ccc2[nH]nc(-c3ccncc3)c2c1)[C@@H]1CCN(CC(=O)N2CCN(c3ccc(-c4ncccn4)cc3)CC2)C1 | 0 | 3.4 |
| O=C(/C=C\n1cnc(-c2cc(C(F)(F)F)cc(C(F)(F)F)c2)n1)NNc1ccccn1 [Verdinexor] | 4.9 | 4.7 |
| CN(C)CC#Cc1ccc(OCCCc2sc(N3CCc4cccc(C(=O)Nc5nc6ccccc6s5)c4C3)nc2C(=O)O)c(F)c1 | 12 | 6.6 |
| CC1(C)CC[C@]2(NC(=O)C(C)(F)F)CC[C@]3(C)[C@H](C(=O)C=C4[C@@]5(C)C=C(C#N)C(=O)C(C)(C)[C@@H]5CC[C@]43C)[C@@H]2C1 [Omaveloxolone] | 13.5 | 14.3 |
| CN(C)C/C=C/C(=O)Nc1cc2c(Nc3ccc(F)c(Cl)c3)ncnc2cc1O[C@H]1CCOC1 [Afatinib] | 10.1 | 6.2 |
| O=C1CCc2c(Oc3ccc4c(c3)[C@@H]3[C@H](O4)[C@H]3c3nc4cc(C(F)(F)F)ccc4[nH]3)ccnc2N1 [BGB-283] | 1.3 | 3.6 |
| Cc1cn(-c2cc(NC(=O)c3ccc(C)c(Nc4nccc(-c5cnccn5)n4)c3)cc(C(F)(F)F)c2)cn1 [Radotinib] | 2.4 | 0 |
| CN(C)C(=N)NC(=N)N [Metformin] | 0 | 0 |
| O=C(NOCCO)c1ccc2cncn2c1Nc1ccc(I)cc1F [GDC-0623] | 0.5 | 0.4 |
| CN(C)CCCOc1ccc(-c2ccc3ncc4c(c3c2)n(C2CCOCC2)c(=O)n4C)cn1 [AZD0156] | 3 | 1.6 |
| C=CC(=O)Nc1cccc(Nc2nc(Nc3ccc(OCCOC)cc3)ncc2F)c1 [Spebrutinib] | 0.9 | 0.7 |
| CCc1cc2c(cc1N1CCC(N3CCOCC3)CC1)C(C)(C)c1[nH]c3cc(C#N)ccc3c1C2=O [Alectinib] | 0 | 0.9 |

From the supplement of paper PMC7224384
